What was measured:
[1] = tested on: Pklr; assay: In vivo efficacy study in rats: hepatic Pklr expression; conditions: rat animal study
Method: In vivo efficacy studies. […] The HSD group were treated with vehicle solution only.

[2] = tested on: Sprague Dawley male rats; assay: In vivo biosafety study: micronucleus frequencies (MNPCEs) in blood; design: species or system rat; conditions: 30 mg/kg oral, 7 days, CHOW, p>0.05
Method: In vivo biosafety studies. Healthy Sprague Dawley male rats (12 weeks old, 250-280 g) were obtained from Atatürk University Experimental Research Center (ATADEM, Erzurum Turkey) and housed under standard environmental conditions (temperature 20° C.-25° C., humidity 50±20% and 12-hour light/dark diurnal cycle). Food and water were available ad libitum. Rats were randomly separated into one control group and two experimental groups (30 mg/kg/day BX-912 or JNK-IN-5A, n=5). BX-912 and JNK-IN-5A were dissolved in DMSO and orally administrated using oral gavage for 7 days. The control group were received the same amount of vehicle solution only.
After 7 days, rats were anaesthetized, and blood samples were collected from the abdominal aorta for biochemical and haematological analysis. The plasma was separated and stored at −80° C. for further analysis. Major organs such as heart, kidney, liver, muscle, adipose, intestine (duodenum, ileum, jejunum), pancreas, colon, and stomach were collected from all the animals for further analysis. Selected organs were fixed in 10% neutral buffered formalin for histopathological examination.
To evaluate the potential toxicity of BX-912 and JNK-IN-5A in animals, three groups of 12-week-old rats (n=5) were raised. The first group was fed with CHOW (Ctrl) for seven days. The second group was fed with CHOW plus BX-912 (30 mg/kg) for seven days. […]

[3] = tested on: HSD-fed rats; assay: In vivo efficacy study in HSD-fed steatosis rats: immunohistochemical 8-OH-dG examination of liver; design: species or system rat; conditions: 30 mg/kg, 7 days, HSD 3w group: strong, FIG. 3
Text: In vivo efficacy studies. After 1-week acclimation period, rats were randomly separated into two groups: control group (n=5) and high sucrose group (n=20). The control group was fed with a standard diet while the others consumed high sucrose diet (HSD). Sucrose was purchased from Sigma Chemical Co. (St Louis, MO, USA) and supplied at the dose of 10% in the drink water for two weeks. After 2 weeks, five rats in the HSD group were randomly sacrificed for conformation of NAFLD model. Then, the remaining rats in the HSD group were separated into three sub-groups (n=5): HSD group, HSD plus BX-912 group and HSD plus JNK-IN-5A group. BX-912 and JNK-IN-5A were dissolved in DMSO and were orally administrated using oral gavage for one week (30 mg/kg/day). The HSD group were treated with vehicle solution only. At the end of the experiment, rats were sacrificed after being anesthetized. Blood samples were collected from the abdominal aorta and centrifuged at 8000 rpm for 15 min at 4° C. The plasma was separated and stored at −80° C. until further analysis. Other internal organs, including the heart, adipose tissues, liver, kidney, muscle, intestine (duodenum, ileum, jejunum), pancreas, colon and stomach were immediately removed and then snap frozen in liquid nitrogen and stored at −80° C.; the liver was also fixed in 10% formaldehyde for histopathological examination. Immunohistochemical examination. […]

SMILES | hepatic Pklr expression in vivo [1] | frequencies of MNPCEs compared to Ctrl animals [2] | 8-OH-dG expression in hepatocytes in liver tissues [3]
N#Cc1c(NC(=O)c2cccc3ccccc23)sc2c1CCCC2 [JNK-IN-5A, N-(3-cyano-4,5,6,7-tetrahydrobenzo [b]thien-2-yl)-1-naphthalenecarboxamide] | significantly decreased | not statistically different | significantly decreased
O=C(Nc1cccc(Nc2ncc(Br)c(NCCc3cnc[nH]3)n2)c1)N1CCCC1 [BX-912, N-[3-[[5-bromo-4-[[2-(1H-imidazol-5-yl)ethyl]amino]-2-pyrimidinyl]amino]phenyl]-1-pyrrolidinecarboxamide] | significantly decreased | not statistically different | significantly decreased

— patent US20240366560A1, “SMALL MOLECULE TREATMENT OF FATTY LIVER DISEASE AND HCC” (ScandiEdge Therapeutics AB, priority 2021, published 2024)
